Experimental data: ChEMBL document CHEMBL5625202, “Synthesis, characterization and anti-breast cancer activities of stachydrine derivatives” (Eur J Med Chem, 2023)
Active and inactive are the calls of the source. The rule behind the calls is not given here.

Tests used:
4T1 [1] = assay: Anticancer activity against mouse 4T1 cells assessed as inhibition of cell growth incubated for 72 hrs by CCK-8 assay; format: functional, cell-based; conditions: 4T1, 72 h
[2] = Toxicity against BALB/c mouse implanted with mouse 4T1 cells assessed as animal death at 0.2 mmol/Kg, po administered once every day for 14 days; format: organism-based; conditions: in vivo, 336 h, time 14 day
[3] = AUC (0 to t) in Sprague-Dawley rat plasma at 10 mg/kg, po measured upto 24 hrs by LC-MS/MS analysis; format: ADME, organism-based
[4] = Toxicity in BALB/c mouse implanted with mouse 4T1 cells assessed as blurred spleen morphology at 0.2 mmol/Kg, po administered once every day for 14 days; format: organism-based; conditions: in vivo, 336 h, time 14 day
[5] = Toxicity in BALB/c mouse implanted with mouse 4T1 cells assessed as change in kidney histopathology at 0.2 mmol/Kg, po administered once every day for 14 days; format: organism-based; conditions: in vivo, 336 h, time 14 day
[6] = Toxicity in BALB/c mouse implanted with mouse 4T1 cells assessed as increase in neutrophil granulocytes at 0.2 mmol/Kg, po administered once every day for 14 days by routine blood analysis; format: organism-based; conditions: in vivo, 336 h, time 14 day
4T1 [7] = assay: Induction of apoptosis in mouse 4T1 cells assessed as increase in cleaved caspase-3 expression at 10 uM incubated for 24 hrs by Western blot analysis; format: functional, cell-based
[8] = Toxicity in BALB/c mouse implanted with mouse 4T1 cells assessed as increase in lymphocytes at 0.2 mmol/Kg, po administered once every day for 14 days by routine blood analysis; format: organism-based; conditions: in vivo, 336 h, time 14 day
[9] = Oral bioavailability in Sprague-Dawley rat at 10 mg/kg measured upto 24 hrs by LC-MS/MS analysis; format: ADME, organism-based; conditions: in vivo
4T1 [10] = assay: Induction of mitochondrial membrane potential loss in mouse 4T1 cells assessed as red fluorescence at 10 uM incubated for 24 hrs by JC-1 staining based flow cytometric analysis (Rvb= 87.9%); format: cell-based
[11] = Toxicity in BALB/c mouse implanted with mouse 4T1 cells assessed as increase in spleen edema at 0.2 mmol/Kg, po administered once every day for 14 days relative to control; format: organism-based; conditions: in vivo, 336 h, time 14 day
[12] = Prodrug conversion in cell culture medium containing 10% FBS assessed as drug hydrolysis by measuring stachydrine release at 3 to 20 hrs; format: ADME; conditions: cattle; time 3-20 hrs
[13] = Toxicity in BALB/c mouse implanted with mouse 4T1 cells assessed as change in liver histopathology at 0.2 mmol/Kg, po administered once every day for 14 days; format: organism-based; conditions: in vivo, 336 h, time 14 day
[14] = Toxicity in BALB/c mouse implanted with mouse 4T1 cells assessed as increase in white blood cells at 0.2 mmol/Kg, po administered once every day for 14 days by routine blood analysis; format: organism-based; conditions: in vivo, 336 h, time 14 day
[15] = Cmax in Sprague-Dawley rat plasma at 10 mg/kg, po measured upto 24 hrs by LC-MS/MS analysis; format: ADME, organism-based
4T1 [16] = assay: Antitumor activity against mouse 4T1 cells implanted in BALB/c mouse assessed as tumor growth inhibition at 0.2 mmol/Kg, po administered once every day for 14 days relative to control; format: functional; conditions: 4T1, 336 h, time 14 day, read-out: TGI
4T1 [17] = assay: Inhibition of cell migration in mouse 4T1 cells assessed as reduction in wound healing incubated for 24 hrs by microscopic analysis; format: functional, cell-based
4T1 [18] = assay: Induction of cell cycle arrest in mouse 4T1 cells assessed as accumulation of cells in G0/G1 phase at 40 micromol/L incubated for 24 hrs by flow cytometry (reference value: 53.6%); format: functional; conditions: dose 40 µmol/L, at 40 µM
[19] = Toxicity in BALB/c mouse implanted with mouse 4T1 cells assessed as increase in ALT level at 0.2 mmol/Kg, po administered once every day for 14 days by routine blood analysis; format: organism-based; conditions: in vivo, 336 h, time 14 day
[20] = Toxicity in BALB/c mouse implanted with mouse 4T1 cells assessed as increase in AST level at 0.2 mmol/Kg, po administered once every day for 14 days by routine blood analysis; format: organism-based; conditions: in vivo, 336 h, time 14 day
4T1 [21] = assay: Antitumor activity against mouse 4T1 cells implanted in BALB/c mouse assessed as appearance of larger void areas in tumor at 0.2 mmol/Kg, po administered once daily for 14 days by histological staining based analysis; format: functional, organism-based; conditions: time 14.0 day
[22] = Toxicity in BALB/c mouse implanted with mouse 4T1 cells assessed as increase in monocytes at 0.2 mmol/Kg, po administered once every day for 14 days by routine blood analysis; format: organism-based; conditions: in vivo, 336 h, time 14 day
4T1 [23] = assay: Induction of apoptosis in mouse 4T1 cells assessed as apoptotic rate at 1.25 micromol/L incubated for 24 hrs by Annexin-V/PI staining based flow cytometry relative to control; format: functional; conditions: dose 1.25 µmol/L, at 1.25 µM
4T1 [24] = assay: Induction of apoptosis in mouse 4T1 cells assessed as increase in Bax expression at 10 uM incubated for 24 hrs by Western blot analysis; format: functional, cell-based
4T1 [25] = assay: Induction of G0/G1 phase cell cycle arrest in mouse 4T1 cells assessed as decrease in G2/M phase cells at 1.25 to 40 uM incubated for 24 hrs by flow cytometry; format: functional, cell-based; conditions: dose 1.25-40 µM
[26] = Toxicity in BALB/c mouse implanted with mouse 4T1 cells assessed as splenic edema at 0.2 mmol/Kg, po administered once every day for 14 days; format: organism-based; conditions: in vivo, 336 h, time 14 day
4T1 [27] = assay: Antitumor activity against mouse 4T1 cells implanted in BALB/c mouse assessed as tumor cell shrinkage at 0.2 mmol/Kg, po administered once every day for 14 days by histological staining based analysis; format: functional, organism-based; conditions: time 14.0 day
4T1 [28] = assay: Induction of apoptosis in mouse 4T1 cells assessed as caspase-3 activation at 10 uM incubated for 24 hrs by Western blot analysis; format: functional, cell-based
[29] = Toxicity in BALB/c mouse implanted with mouse 4T1 cells assessed as reduction in spleen index at 0.2 mmol/Kg, po administered once every day for 14 days relative to control; format: organism-based; set-up: scale not given: the % may be the effect or the level left; conditions: in vivo, 336 h, at 0.2 mmol/kg, time 14 day
[30] = Prodrug conversion in carboxylesterase (unknown origin) solution assessed as drug hydrolysis by measuring stachydrine release at 3 to 20 hrs; format: ADME, Homo sapiens; conditions: time 3-20 hrs
4T1 [31] = assay: Inhibition of cell invasion in mouse 4T1 cells at 30 micromol/mL incubated for 24 hrs by microscopic analysis; format: functional, cell-based; conditions: dose 30.0 µmol/ml
[32] = Prodrug conversion in serum (unknown origin) assessed as drug hydrolysis by measuring stachydrine release at 3 to 20 hrs; format: ADME, cell-free; conditions: time 3-20 hrs
4T1 [33] = assay: Induction of apoptosis in mouse 4T1 cells assessed as apoptotic rate at 10 micromol/L incubated for 24 hrs by Annexin-V/PI staining based flow cytometry relative to control; format: functional; conditions: dose 10 µmol/L, at 10 µM
4T1 [34] = assay: Inhibition of cell migration in mouse 4T1 cells assessed as expansion of wound area at 30 micromol/mL incubated for 24 hrs by microscopic analysis; format: functional, cell-based; conditions: dose 30.0 µmol/ml
[35] = Toxicity in BALB/c mouse implanted with mouse 4T1 cells assessed as change in lung histopathology at 0.2 mmol/Kg, po administered once every day for 14 days; format: organism-based; conditions: in vivo, 336 h, time 14 day
4T1 [36] = assay: Anticancer activity against mouse 4T1 cells assessed as inhibition of cell growth incubated for 48 hrs by CCK-8 assay; format: functional, cell-based; conditions: 4T1, 48 h
4T1 [37] = assay: Induction of cell cycle arrest in mouse 4T1 cells assessed as accumulation of cells in G0/G1 phase at 10 uM incubated for 24 hrs by flow cytometry relative to control; format: functional
4T1 [38] = assay: Induction of G0/G1 phase cell cycle arrest in mouse 4T1 cells assessed as decrease in S phase cells at 1.25 to 40 uM incubated for 24 hrs by flow cytometry; format: functional, cell-based; conditions: dose 1.25-40 µM

CCCCCCCCCCCCOC(=O)C1CCC[N+]1(C)C.[Cl-] (stereo not drawn)
IC50 (4T1 [1]): 8.35 µM | Activity [2]: Non-Toxic | AUC(0-t) at 24 h [3]: 14800 ng·h/mL | Activity [4]: Toxic | Activity [5]: Non-Toxic | Activity [6]: Non-Toxic | Activity (4T1 [7]): Active | Activity [8]: Non-Toxic | bioavailability [9]: 79.6% | Activity (4T1 [10]): 43.1% | Activity [11]: Toxic | Drug metabolism [12]: Metabolite_Detected | Activity [13]: Non-Toxic | Activity [14]: Non-Toxic | Cmax [15]: 6100 ng/mL | inhibition in vivo at 200 µmol/kg (4T1 [16]): 56.3% | inhibition (4T1 [17]): Dose-Dependent Effect | Activity (4T1 [18]): 64.5% | Activity [19]: Toxic | Activity [20]: Toxic | Activity (4T1 [21]): Active | Activity [22]: Non-Toxic | Activity (4T1 [23]): 38.5% | Activity (4T1 [24]): Active | Activity (4T1 [25]): Active | Activity [26]: Toxic | Activity (4T1 [27]): Active | Activity (4T1 [28]): Active | Activity [29]: 60% | Drug metabolism [30]: Metabolite_Detected | inhibition (4T1 [31]): Active | Drug metabolism [32]: Metabolite_Detected | Activity (4T1 [33]): 59% | inhibition (4T1 [34]): Active | Activity [35]: Non-Toxic | IC50 (4T1 [36]): 17.9 µM | Activity (4T1 [37]): ~56% | Activity (4T1 [38]): Active
